These molecules were tested against T1, Ribosyldihydronicotinamide dehydrogenase [quinone] (Homo sapiens, UniProt P16083) (assay: Displacement of [125I]iodomelatonin from MT3/QR2 melatonin binding site expressed in CHO cells).
T1 sequence (P16083 whole entry): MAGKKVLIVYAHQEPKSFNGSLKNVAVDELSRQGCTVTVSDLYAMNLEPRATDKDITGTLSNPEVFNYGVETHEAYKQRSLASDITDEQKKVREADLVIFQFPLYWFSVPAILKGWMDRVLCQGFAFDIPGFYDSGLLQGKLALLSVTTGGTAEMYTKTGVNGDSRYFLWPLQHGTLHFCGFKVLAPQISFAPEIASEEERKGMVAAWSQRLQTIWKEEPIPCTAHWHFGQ
Format: cell-based

Row | IC50 [nM] | SMILES
1 | 64.6 | COc1ccc2occ(CCNC(C)=O)c2c1
2 | 2.82 | COc1ccc2c(c1)c(CCNC(C)=O)cn2C
3 | 43.7 | COc1ccc2cccc(CCNC(=O)C(C)C)c2c1
4 | 15.8 | COC(=O)Nc1ccc2occ(CCNC(C)=O)c2c1
5 | 67.6 | COC(=O)Nc1ccc2occ(CCNC(=O)c3ccccc3)c2c1
6 | 3.02 | CCOC(=O)c1[nH]c2ccc(OC)cc2c1CCNC(C)=O
7 | 53.7 | COc1ccc2cccc(CCNC(=O)c3ccco3)c2c1
8 | 11 | C=CCC(=O)NCCc1coc2ccc(NC(=O)OC)cc12
9 | 18.2 | COC(=O)c1ccc2occ(CCNC(=O)C3CCCC3)c2c1
10 | 14.1 | COC(=O)c1ccc2occ(CCNC(C)=O)c2c1
11 | 22.9 | COC(=O)Nc1ccc2occ(CCNC(=O)C(C)C)c2c1
12 | 56.2 | COC(=O)Nc1ccc2occ(CCNC(=O)c3ccco3)c2c1

Further lines, the molecule ahead of its results:

Row | SMILES | IC50 [nM]
13 | COc1ccc2c(CCNC(=O)C3CCC3)cccc2c1 | 70.8
14 | COc1ccc2[nH]cc(CCNC(C)=O)c2c1[N+](=O)[O-] | 1.2
15 | COc1ccc2cccc(CCNC(=O)c3ccccc3)c2c1 | 28.8
16 | CC(=O)NCCc1c[nH]c2ccc([N+](=O)[O-])cc12 | 41.7
17 | CS(=O)(=O)NCCc1cccc2ccccc12 | 28.2
18 | CNC(=O)c1ccc2cccc(CNC(C)=O)c2c1 | 12
19 | CC(=O)NCCc1cccc2ccc([S+](C)[O-])cc12 (centres undefined) | 37.2
20 | COC(=O)Nc1ccc2cccc(CNC(=O)C3CC3)c2c1 | 24
21 | CSc1ccc2cccc(CCNC(C)=O)c2c1 | 18.2
22 | COc1ccc2cccc(CC3=NC(=O)NC3=O)c2c1 | 61.7
23 | COc1ccc2cccc(CCN3CCOC3=O)c2c1 | 14.1
24 | O=C(NCCc1cccc2ccc(O)cc12)c1ccco1 | 11
25 | CC(=O)NCCc1cccc2ccc(S(N)(=O)=O)cc12 | 32.4
26 | CC(C)(C)OC(=O)NCCc1cccc2ccc(O)cc12 | 51.3
27 | CNS(=O)(=O)c1ccc2cccc(CCNC(=O)c3ccco3)c2c1 | 9.12
28 | CC(=O)NCCc1cccc2ccc(S(C)(=O)=O)cc12 | 20.9
29 | C=CCC(=O)NCCc1cccc2ccc(O)cc12 | 7.76
30 | COC(=O)c1ccc2cccc(CNC(=O)c3ccco3)c2c1 | 52.5
31 | NC(=O)c1ccc2occ(CCNC(=O)c3ccco3)c2c1 | 67.6
32 | COc1ccc2cccc(CCNC(=O)CN3CCCC3=O)c2c1 | 61.7
33 | COC(=O)Nc1ccc2[nH]c(I)c(CCNC(C)=O)c2c1 | 0.302
34 | COc1ccc2c(c(CCNC(C)=O)cn2C)c1[N+](=O)[O-] | 0.309
